Several values for one entry are separate records, joined by “and”; a condition that tells them apart may be missing. Equal values may be shown once. Read-outs that look alike come from different tables or passages of the source.
Tested on: C. elegans unc-17 mutants
[1] = unc-17 (e327), 15 µM, 60 min, single Bio Rep
[2] = unc-17 (e327), 30 µM, 60 min, single Bio Rep
[3] = unc-17 (e327), 60 µM, 60 min, single Bio Rep
[4] = unc-17 (e795), 15 µM, 60 min, average of 3 biological repeats
[5] = unc-17 (e795), 15 µM, young adult, average of 3 biological repeats
[6] = unc-17 (e795), 30 µM, young adult, average of 3 biological repeats
[7] = unc-17 (e795), 60 µM, young adult, average of 3 biological repeats
[8] = unc-17 (md414), 15 µM, 60 min, adult worms, average of 3 biological repeats
[9] = unc-17 (md414), 30 µM, 60 min, average of 3 biological repeats
[10] = unc-17 (md414), 60 µM, 60 min, average of 3 biological repeats
[11] = unc-17 (md414), 15 µM, 60 min, single Bio Rep
[12] = unc-17 (md414), 30 µM, 60 min, single Bio Rep
[13] = unc-17 (md414), 60 µM, 60 min, single Bio Rep

Experimental: Significance was calculated using Fisher’s method (one-sided comparisons; see 'Methods'). […] Worms were incubated on the plates for 60 min.
Locomotor phenotype analyses were done in 24-well plates with 1 mL of MYOB substrate (27.5 g Trizma HCl, 12 g Trizma Base, 230 g bacto tryptone, 10 g NaCl, 0.4 g cholesterol (95%)) seeded with 25 µL of OP50 Escherichia coli on each well. Each compound was added to the MYOB substrate before pouring to achieve the desired final concentrations of 30 µM or 60 µM after diffusion through the media. Synchronized young adult worms are transferred into each well using a platinum wire pick. A Leica MZ75 stereomicroscope was used to visualize the movement of worms on the solid substrate. The specific dominant locomotor phenotype (i.e. ‘Punc’, ‘paralyzed’, ‘coiler’ or ‘wild-type locomotion’) was scored after the touch on the head with a platinum wire over a ~3–5 s of observation. […] Coiled animals were not scored as paralyzed despite sometimes not responding to light touch.

O=[N+]([O-])c1ccc(N2CCN(CC3CCCCC3)CC2)cc1 [Nemacol-1]
Fraction Coiled, Averages of 3 biological repeats (unc-17 (e327), 15 µM, 60 min): 0.77 | Fraction Jerky-Unc, Averages of 3 biological repeats (unc-17 (e327), 15 µM, 60 min): 0.15 | Fraction No Phenotype, Averages of 3 biological repeats (unc-17 (e327), 15 µM, 60 min): 0.00 | Fraction Parayzed, Averages of 3 biological repeats (unc-17 (e327), 15 µM, 60 min): 0.08 | C1 (loose coil) worm count [1]: 3 and 4 | C2 (tight coil) worm count [1]: 10 and 12 and 8 | Fraction Coiled [1]: 0.75 and 0.72 and 0.83 | Fraction Jerky-Unc [1]: 0.125 and 0.1667 | Fraction No Phenotype [1]: 0.00 | J (jerky-unc) worm count [1]: 3 and 2 | NP (no phene) worm count [1]: 0 | Fraction Coiled, Averages of 3 biological repeats (unc-17 (e327), 30 µM, 60 min): 0.66 | Fraction Jerky-Unc, Averages of 3 biological repeats (unc-17 (e327), 30 µM, 60 min): 0.12 | Fraction No Phenotype, Averages of 3 biological repeats (unc-17 (e327), 30 µM, 60 min): 0.00 | Fraction Parayzed, Averages of 3 biological repeats (unc-17 (e327), 30 µM, 60 min): 0.23 | C1 (loose coil) worm count [2]: 2 and 4 | C2 (tight coil) worm count [2]: 8 and 9 and 7 | Fraction Coiled [2]: 0.69 and 0.56 and 0.72 | Fraction No Phenotype [2]: 0.00 | NP (no phene) worm count [2]: 0 | Fraction Coiled, Averages of 3 biological repeats (unc-17 (e327), 60 µM, 60 min): 0.48 | Fraction Jerky-Unc, Averages of 3 biological repeats (unc-17 (e327), 60 µM, 60 min): 0.037 | Fraction No Phenotype, Averages of 3 biological repeats (unc-17 (e327), 60 µM, 60 min): 0.00 | Fraction Parayzed, Averages of 3 biological repeats (unc-17 (e327), 60 µM, 60 min): 0.48 | C1 (loose coil) worm count [3]: 4 and 3 and 2 | Fraction No Phenotype [3]: 0.00 | NP (no phene) worm count [3]: 0 | P (paralyzed) worm count [3]: 8 and 6 and 12 | Fraction Coiled [4]: 0.81 | Fraction Jerky-Unc [4]: 0.09 | Fraction No Phenotype [4]: 0.00 | Fraction Parayzed [4]: 0.09 | Fraction Coiled [5]: 0.74 | Fraction Jerky-Unc [5]: 0.24 | Fraction No Phenotype [5]: 0.00 | Fraction Parayzed [5]: 0.0185 | Fraction Coiled [6]: 0.83 | Fraction Jerky-Unc [6]: 0.0556 | Fraction No Phenotype [6]: 0.00 | Fraction Parayzed [6]: 0.11 | Fraction Coiled [7]: 0.63 | Fraction Jerky-Unc [7]: 0.0556 | Fraction No Phenotype [7]: 0.00 | Fraction Parayzed [7]: 0.31 | Fraction Coiled [8]: 0.19 | Fraction Jerky-Unc [8]: 0.60 | Fraction No Phenotype [8]: 0.21 | Fraction Parayzed [8]: 0.00 | Fraction Coiled [9]: 0.44 | Fraction Jerky-Unc [9]: 0.47 | Fraction No Phenotype [9]: 0.037 | Fraction Parayzed [9]: 0.06 | Fraction Coiled [10]: 0.59 | Fraction Jerky-Unc [10]: 0.27 | Fraction No Phenotype [10]: 0.00 | Fraction Parayzed [10]: 0.13 | Fraction Coiled, Averages of 3 biological repeats (unc-17 (md414), 15 µM, 60 min): 0.25 | Fraction Jerky-Unc, Averages of 3 biological repeats (unc-17 (md414), 15 µM, 60 min): 0.52 | Fraction No Phenotype, Averages of 3 biological repeats (unc-17 (md414), 15 µM, 60 min): 0.23 | Fraction Parayzed, Averages of 3 biological repeats (unc-17 (md414), 15 µM, 60 min): 0.00 | C1 (loose coil) worm count [11]: 1 and 2 | Fraction Jerky-Unc [11]: 0.35 and 0.6111 and 0.5882 | Fraction Parayzed [11]: 0 | J (jerky-unc) worm count [11]: 11 and 7 and 10 | P (paralyzed) worm count [11]: 0 | Fraction Coiled, Averages of 3 biological repeats (unc-17 (md414), 30 µM, 60 min): 0.54 | Fraction Jerky-Unc, Averages of 3 biological repeats (unc-17 (md414), 30 µM, 60 min): 0.44 | Fraction No Phenotype, Averages of 3 biological repeats (unc-17 (md414), 30 µM, 60 min): 0.00 | Fraction Parayzed, Averages of 3 biological repeats (unc-17 (md414), 30 µM, 60 min): 0.0185 | C1 (loose coil) worm count [12]: 4 and 2 and 3 | C2 (tight coil) worm count [12]: 5 and 8 and 6 | Fraction Coiled [12]: 0.50 and 0.63 | Fraction Jerky-Unc [12]: 0.5 and 0.4444 and 0.375 | Fraction No Phenotype [12]: 0.00 | J (jerky-unc) worm count [12]: 8 and 9 and 6 | NP (no phene) worm count [12]: 0 | Fraction Coiled, Averages of 3 biological repeats (unc-17 (md414), 60 µM, 60 min): 0.49 | Fraction Jerky-Unc, Averages of 3 biological repeats (unc-17 (md414), 60 µM, 60 min): 0.28 | Fraction No Phenotype, Averages of 3 biological repeats (unc-17 (md414), 60 µM, 60 min): 0.00 | Fraction Parayzed, Averages of 3 biological repeats (unc-17 (md414), 60 µM, 60 min): 0.22 | C2 (tight coil) worm count [13]: 6 | Fraction Coiled [13]: 0.56 and 0.59 and 0.33 | Fraction No Phenotype [13]: 0.00 | J (jerky-unc) worm count [13]: 6 and 3 | NP (no phene) worm count [13]: 0

Reference: article PMC10066365, “Nemacol is a small molecule inhibitor of C. elegans vesicular acetylcholine transporter with anthelmintic potential” (Nature Communications, 2023)
